The text below walks through data of patent US20250270172A1, “Pyrimidine Derivatives As Modulators of the 5-HT2A Serotonin Receptor Useful For The Treatment of Disorders Related Thereto” (Arena Pharmaceuticals, Inc., priority 2020, published 2025).

pKi: −log10 of the molar value.

For one assay, the target named is 5-HT2A (Homo sapiens (Human), UniProt P28223). Description: Radioligand binding assay, [^3H]5-HT competition, 5-HT2A. To be noted: [^3H]5-HT radioligand, membranes of HEK293 cells expressing recombinant 5-HT2A; Ki from IC50 by Cheng-Prusoff; read-out: 5-HT2A serotonin binding Ki value.
Chain of 5-HT2A (P28223 whole entry): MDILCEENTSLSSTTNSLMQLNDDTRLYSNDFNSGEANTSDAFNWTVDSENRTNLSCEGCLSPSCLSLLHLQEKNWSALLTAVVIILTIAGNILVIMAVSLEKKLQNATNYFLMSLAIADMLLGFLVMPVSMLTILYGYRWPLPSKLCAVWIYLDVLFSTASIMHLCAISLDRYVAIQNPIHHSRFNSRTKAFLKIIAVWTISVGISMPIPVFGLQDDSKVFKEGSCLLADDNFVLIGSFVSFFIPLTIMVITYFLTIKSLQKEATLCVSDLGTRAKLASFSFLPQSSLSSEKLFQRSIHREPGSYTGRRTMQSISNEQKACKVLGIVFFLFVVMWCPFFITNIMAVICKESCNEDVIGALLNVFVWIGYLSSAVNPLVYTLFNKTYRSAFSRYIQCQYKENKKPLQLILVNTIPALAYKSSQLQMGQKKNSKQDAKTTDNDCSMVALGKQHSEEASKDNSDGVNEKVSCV
With `Cc1ncnc(C)c1-c1cc(NC(=O)c2ncccc2F)ccc1OCCN1CCC1` [Compound 330, N-(4-(2-(azetidin-1-yl)ethoxy)-3-(4,6-dimethylpyrimidin-5-yl)phenyl)-3-fluoropicolinamide], the pKi (as a rule, the negative decadic logarithm of the Ki, by convention in mol/L) was 6.48. Still for that read-out and setting: for `Cc1ncnc(C)c1-c1cc(NC(=O)c2cnccc2F)ccc1OCCN1CCC1` [Compound 331, N-(4-(2-(azetidin-1-yl)ethoxy)-3-(4,6-dimethylpyrimidin-5-yl)phenyl)-4-fluoronicotinamide] the value was 7.63. Regarding `Cc1ncnc(C)c1-c1cc(NC(=O)c2ccncc2F)ccc1OCCN1CCC1` [Compound 332, N-(4-(2-(azetidin-1-yl)ethoxy)-3-(4,6-dimethylpyrimidin-5-yl)phenyl)-3-fluoroisonicotinamide], the negative logarithm of the Ki (pKi) is 7.73. Same read-out and setting: for `Cc1ncnc(C)c1-c1cc(NC(=O)c2ncncc2F)ccc1OCCN1CCC1` [Compound 333, N-(4-(2-(azetidin-1-yl)ethoxy)-3-(4,6-dimethylpyrimidin-5-yl)phenyl)-5-fluoropyrimidine-4-carboxamide] the value was 6.65. Still for that read-out and setting: for `CC(=O)N1CCN(CCOc2ccc(NC(=O)C3CC3)cc2-c2c(C)ncnc2C)CC1` [Compound 334, N-[4-[2-(4-acetylpiperazin-1-yl)ethoxy]-3-(4,6-dimethylpyrimidin-5-yl)phenyl]cyclopropanecarboxamide] the value was 7.75; for `Cc1ncnc(C)c1-c1cc(NC(=O)C2CC2)ccc1OCCN1CCC(CC(=O)O)CC1` [Compound 335, 2-[1-[2-[4-(cyclopropanecarbonylamino)-2-(4,6-dimethylpyrimidin-5-yl)phenoxy]ethyl]-4-piperidyl]acetic acid], 6.71. On the same count and under the same terms, for `Cc1ncnc(C)c1-c1cc(NC(=O)C2CC2)ccc1OCCN1C[C@@H]2C[C@H]1CO2` [Compound 336, N-[3-(4,6-dimethylpyrimidin-5-yl)-4-[2-[(1S,4S)-2-oxa-5-azabicyclo[2.2.1]heptan-5-yl]ethoxy]phenyl]cyclopropanecarboxamide] the value was 8.19. Turning to `Cc1ncnc(C)c1-c1cc(NC(=O)C2CC2)ccc1OCCN1[C@@H]2COC[C@H]1C2` [Compound 337, N-[3-(4,6-dimethylpyrimidin-5-yl)-4-[2-[(1S,5R)-3-oxa-6-azabicyclo[3.1.1]heptan-6-yl]ethoxy]phenyl]cyclopropanecarboxamide], the pKi is 8.14. For the molecule `Cc1ncnc(C)c1-c1cc(NC(=O)C2CC2)ccc1OCCN1CCN(C(=O)CO)CC1` [Compound 339, N-[3-(4,6-dimethylpyrimidin-5-yl)-4-[2-[4-(2-hydroxyacetyl)piperazin-1-yl]ethoxy]phenyl]cyclopropanecarboxamide], the pKi is 7.74. Same read-out and setting: for `Cc1ncnc(C)c1-c1cc(NC(=O)C2CC2)ccc1OCCN1CCN(C(=O)C(=O)O)CC1` [Compound 340, 2-[4-[2-[4-(cyclopropanecarbonylamino)-2-(4,6-dimethylpyrimidin-5-yl)phenoxy]ethyl]piperazin-1-yl]-2-oxo-acetic acid] the value was 6.43. Same read-out and setting: for `Cc1ncnc(C)c1-c1cc(NC(=O)C2CC2)ccc1OCCN1CCN(C=O)CC1` [Compound 341, N-[3-(4,6-dimethylpyrimidin-5-yl)-4-[2-(4-formylpiperazin-1-yl)ethoxy]phenyl]cyclopropanecarboxamide] the value was 8.01. In the case of `Cc1ncnc(C)c1-c1cc(NC(=O)C2CC2)ccc1OCCN1CCN(S(C)(=O)=O)CC1` [Compound 342, N-[3-(4,6-dimethylpyrimidin-5-yl)-4-[2-(4-methylsulfonylpiperazin-1yl)ethoxy]phenyl]cyclopropanecarboxamide], the pKi was 8.16. On the same count and under the same terms, for `Cc1ncnc(C)c1-c1cc(NC(=O)C2CC2)ccc1OCCN1CCN2C(=O)OCC2C1` (stereo not drawn) [Compound 343, N-[3-(4,6-dimethylpyrimidin-5-yl)-4-[2-(3-oxo-5,6,8,8a-tetrahydro-1H-oxazolo[3,4-a]pyrazin-7-yl)ethoxy]phenyl]cyclopropanecarboxamide] the value was 7.32; for `Cc1ncnc(C)c1-c1cc(NC(=O)C2CC2)ccc1OCCN1CC2(COC2)C1` [Compound 345, N-(4-(2-(2-oxa-6-azaspiro[3.3]heptan-6-yl)ethoxy)-3-(4,6-dimethylpyrimidin-5-yl)phenyl)cyclopropanecarboxamide], 7.71; for `Cc1ncnc(C)c1-c1cc(NC(=O)C2CC2)ccc1OCCN1CCN2C(=O)CCC2C1` (stereo not drawn) [Compound 346, N-(3-(4,6-dimethylpyrimidin-5-yl)-4-(2-(6-oxohexahydropyrrolo[1,2-a]pyrazin-2 (1H)-yl)ethoxy)phenyl)cyclopropanecarboxamide], 7.51. On the same count and under the same terms, for `Cc1ncnc(C)c1-c1cc(NC(=O)C2CC2)ccc1OCCN1CCC2(CC1)CNC2=O` [Compound 347, N-(3-(4,6-dimethylpyrimidin-5-yl)-4-(2-(1-oxo-2,7-diazaspiro[3.5]nonan-7-yl)ethoxy)phenyl)cyclopropanecarboxamide] the value was 7.37; for `Cc1ncnc(C)c1-c1cc(NC(=O)C2CC2)ccc1OCCN1CCC2(CC1)CC(=O)N2` [Compound 348, N-(3-(4,6-dimethylpyrimidin-5-yl)-4-(2-(2-oxo-1,7-diazaspiro[3.5]nonan-7-yl)ethoxy)phenyl)cyclopropanecarboxamide], 7.18. Take `Cc1ncnc(C)c1-c1cc(NC(=O)C2CC2)ccc1OCCN1CCC2(CCC(=O)O2)CC1` [Compound 349, N-(3-(4,6-dimethylpyrimidin-5-yl)-4-(2-(2-oxo-1-oxa-8-azaspiro[4.5]decan-8-yl)ethoxy)phenyl)cyclopropanecarboxamide]: the pKi is 7.90. Still for that read-out and setting: for `Cc1ncnc(C)c1-c1cc(NC(=O)C2CC2)ccc1OCCN1CCC2(CCOC2=O)CC1` [Compound 350, N-(3-(4,6-dimethylpyrimidin-5-yl)-4-(2-(1-oxo-2-oxa-8-azaspiro[4.5]decan-8-yl)ethoxy)phenyl)cyclopropanecarboxamide] the value was 7.37; for `CO[C@H]1CCN(CCOc2ccc(NC(=O)C3CC3)cc2-c2c(C)ncnc2C)C1` [Compound 352, (S)—N-(3-(4,6-dimethylpyrimidin-5-yl)-4-(2-(3-methoxypyrrolidin-1-yl)ethoxy)phenyl)cyclopropanecarboxamide], 7.81. Same read-out and setting: for `COCCN(C)CCOc1ccc(NC(=O)C2CC2)cc1-c1c(C)ncnc1C` [Compound 354, N-[3-(4,6-dimethylpyrimidin-5-yl)-4-[2-[2-methoxyethyl(methyl)amino]ethoxy]phenyl]cyclopropanecarboxamide] the value was 7.49; for `CCN(CCOC)CCOc1ccc(NC(=O)C2CC2)cc1-c1c(C)ncnc1C` [Compound 355, N-(3-(4,6-dimethylpyrimidin-5-yl)-4-(2-(ethyl (2-methoxyethyl)amino)ethoxy)phenyl)cyclopropanecarboxamide], 6.75. With `CCCN(CCOC)CCOc1ccc(NC(=O)C2CC2)cc1-c1c(C)ncnc1C` [Compound 356, N-(3-(4,6-dimethylpyrimidin-5-yl)-4-(2-((2-methoxyethyl)(propyl)amino)ethoxy)phenyl)cyclopropanecarboxamide], the negative-log Ki (pKi) is 6.27. The same measure, in the same setting: for `Cc1ncnc(C)c1-c1cc(NC(=O)C2CC2)ccc1OCCN(C)CCO` [Compound 357, N-(3-(4,6-dimethylpyrimidin-5-yl)-4-(2-((2-hydroxyethyl)(methyl)amino)ethoxy)phenyl)cyclopropanecarboxamide] the value was 7.33; for `CCN(CCO)CCOc1ccc(NC(=O)C2CC2)cc1-c1c(C)ncnc1C` [Compound 358, N-(3-(4,6-dimethylpyrimidin-5-yl)-4-(2-(ethyl(2-hydroxyethyl)amino)ethoxy)phenyl)cyclopropanecarboxamide], 7.18; for `CCCN(CCO)CCOc1ccc(NC(=O)C2CC2)cc1-c1c(C)ncnc1C` [Compound 359, N-(3-(4,6-dimethylpyrimidin-5-yl)-4-(2-((2-hydroxyethyl)(propyl)amino)ethoxy)phenyl)cyclopropanecarboxamide], 6.99. Still for that read-out and setting: for `Cc1ncnc(C)c1-c1cc(NC(=O)C2CC2)ccc1OCCN(C)CCF` [Compound 360, N-(3-(4,6-dimethylpyrimidin-5-yl)-4-(2-((2-fluoroethyl)(methyl)amino)ethoxy)phenyl)cyclopropanecarboxamide] the value was 7.96; for `CCN(CCF)CCOc1ccc(NC(=O)C2CC2)cc1-c1c(C)ncnc1C` [Compound 362, N-[3-(4,6-dimethylpyrimidin-5-yl)-4-[2-[ethyl (2-fluoroethyl)amino]ethoxy]phenyl]cyclopropanecarboxamide], 7.02; for `CCCN(CCF)CCOc1ccc(NC(=O)C2CC2)cc1-c1c(C)ncnc1C` [Compound 363, N-[3-(4,6-dimethylpyrimidin-5-yl)-4-[2-[2-fluoroethyl(propyl)amino]ethoxy]phenyl]cyclopropanecarboxamide], 6.97.

On to `Cc1ncnc(C)c1-c1cc(NC(=O)C2CC2)ccc1OCCN(C)CCS(C)(=O)=O` [Compound 364, N-(3-(4,6-dimethylpyrimidin-5-yl)-4-(2-(methyl(2-(methylsulfonyl)ethyl)amino)ethoxy)phenyl)cyclopropanecarboxamide], for which the pKi is 6.43. For `Cc1ncnc(C)c1-c1cc(NC(=O)C2CC2)ccc1OCCN(C)CC[S+](C)[O-]` (stereo not drawn) [Compound 365, N-[3-(4,6-dimethylpyrimidin-5-yl)-4-[2-[methyl (2-methylsulfinylethyl)amino]ethoxy]phenyl]cyclopropanecarboxamide], the pKi was 6.63.

In the case of `CCN(C)CCOc1ccc(NC(=O)C2CC2)cc1-c1c(C)ncnc1C` [Compound 366, N-[3-(4,6-dimethylpyrimidin-5-yl)-4-[2-[ethyl(methyl)amino]ethoxy]phenyl]cyclopropanecarboxamide], the negative logarithm of the Ki (pKi) was 7.95.

The same assay, now with this note: read-out: 5-HT2A serotonin binding Ki value.
Turning to `Cc1ncnc(C)c1-c1cc(NC(=O)C2CC2)ccc1OCCN1CCC(CC(=O)O)C1` (stereo not drawn) [Compound 338, 2-[1-[2-[4-(cyclopropanecarbonylamino)-2-(4,6-dimethylpyrimidin-5-yl)phenoxy]ethyl]pyrrolidin-3-yl]acetic acid], the pKi was 6.31.
